Results on one substance are retold here after US7572436B1, “Thionin as an antineoplastic and immunostimulant” (priority 2000, dated 2009).

Where no end group is shown, it is not given here.

One data set has as its system DU-145 Target Cells. Briefly: Natural killer assay (^51Cr release), human PBLs against DU-145. Format: cell-based. The settings on record: PT 0.05 μg/ml. As to the method:
(§1) Murine spleen cell and human peripheral blood lymphocytes (PBLs) were obtained as described in the procedure for the Mitogen Assay.
(§2) Drugs and control substances were added, using sterile techniques, to the wells of a 24-well plate, using RPMI-10 as the culture medium. Spleen cells or human lymphocytes were added last to the wells at a concentration of 4×10^6 cells per 2 ml total volume in the well. Splenocyte incubation was usually three days (65-70 hours) while human lymphocyte stimulation may be extended to four to five days. The cells were incubated at 37° C. in a humidified 5% CO2 incubator.
On the day of harvest, 10^7 target cells were labeled with 150 μCi of ^51Cr (sodium chromate). Target cells used were YAC-I (murine Lymphoma) or K562 (human chronic myelogenous leukemia). […]
The 96-well plate was centrifuged at 150×g for four minutes to gently bring the effector and target cells in contact. […] The percent release was calculated using the following formula: […]
Addition of PT stimulates both murine splenocytes and human PBLs to kill tumor cells through lysis. […] After a 30-minute incubation, the radioactivity in the supernatant fluid was counted as a measure of lysis of the target cells, which reflects NK activity. […]

Data set [1] relates to T cells in the spleen and thymus. Briefly: FITC Thy-1.2 staining of T cells after ip injection. Format: in vivo, Swiss Webster mice. As to the method: Using sterile technique the spleen or thymus was removed from a mouse euthanized by CO2 gas. The organ was teased apart to collect splenocytes or thymocytes, respectively. The cells were treated with red cell lysing buffer at 37° C. to remove the erthyrocytes, then washed several times in culture medium, RPMI-10. The cells were counted using Trypan Blue exclusion to determine viable cell yield (as described above) and resuspended in PBS/1% BSA/0.1% sodium azide buffer (pH 7.2) at 2×10^7 cells/ml.
To a microfuge tube, in ice, was added 100 μl of cell suspension (2×10^7 cells/ml). Five microliters of FcγR Block (CD16/CD32 Block; Pharmingen, San Diego, Calif.), diluted to 50 μg/ml with PBS/BSA/Azide Buffer, is added. The tube was gently mixed and kept on ice for three minutes.
One hundred microliters of Thy 1.2 FITC stain (10 μg/ml) were added and the tube was gently vortexed. Cells were stained for 30 minutes at 4° C., followed by centrifugation in a microfuge centrifuge at 4500 rpm for three minutes. The cells were washed twice with 500 μl ice-cold PBS/BSA/Azide buffer, and resuspended each time by gentle vortexing.
One hundred microliters of 1% paraformaldehyde (in PBS) were added to the cell pellet, and the cells were thoroughly mixed, then incubated 20 minutes at 4° C. The cells were then washed once with 500 μl of 2.19% glycine and resuspended in 500 μl of sterile PBS.
Fifteen microliters of the stained cell suspension were placed as two non-overlapping spots on a 1-mm thick glass slide that had been cleaned with ethanol. The cell droplets were allowed to dry without spreading or using a cover slip. The slides were air-dried in a hood, covered with aluminum foil to exclude light (in order to prevent photobleaching). If the slide was pre-cleaned and dried correctly, the droplets will naturally dry to a diameter of about 10 mm. The slides should be read within one week.
Cells were evaluated using a Zeiss oil-immersion microscope (UV-lamp, filter #47; Carl Zeiss Inc., Thornwood, N.Y.). Non-stained cells appeared medium-brown in color on a dark background. […] Partially stained cells that have a partial ring were counted separately. The percentage of non-stained, partially stained, and completely stained cells was determined. At least 200 cells per slide were scored, but usually about 300-400 cells were counted.
Data set out in Table 4, and discussed above, indicate that PT stimulates mitogen activity with murine splenocytes in vitro. This could come about through the action of activated macrophages on T cells by IL-1 production and antigen presentation to the T cells. […] T cells were detected with fluorescent-labeled (FITC) Thy 1.2 monoclonal antibody, which is a general antibody for all T cells. The cells were counted manually with a fluorescent microscope, and the data are divided into cells with no stain (no fluorescence), cells with partial staining (medium fluorescence), and cells with intense staining (high fluorescence). The mice were injected with the indicated amount of PT intraperitoneally and the animals sacrificed after three days to obtain the spleen and thymus.

For a further data set, the system named is YAC-1 target cells. Briefly: Natural killer assay (^51Cr release), murine splenocytes against YAC-1. Format: cell-based. The settings on record: for % Cell Lysis: Balb/C splenocytes, ^51Cr loaded YAC-1 cells. As for the experimental part:
as §1, §2
On the day of harvest, 10^7 target cells were labeled with 150 μCi of ^51Cr (sodium chromate). Target cells used were YAC-I (murine Lymphoma) or K562 (human chronic myelogenous leukemia).
The cells were adjusted to 2×10^7 cells/ml in RPMI-10 and 150 μCi of ^51Cr were added to 500 μl of the target cell suspension (10^7 total cells) and incubated in a 5% CO2 humidified incubator for 1.5 hours. The labeled cells were washed three times with 10 ml RPMI-10 and then resuspended in 5 ml (2×10^6 cells/ml). Supernatants from washings of labeled cells were isolated and contained under lead shielding.
The stimulated effector cells were thoroughly mixed and removed from individual wells of the 24-well plate and transferred to tubes for centrifugation at 200×g. The supernatants were decanted and the pelleted cells washed once with 2 ml RPMI-10. The cells were finally resuspended in a total volume of 500 μl at approximately 8×10^6 cells/ml in RPMI-10.
One hundred microliters of the effector cell suspension (8×10^5 cells) were added in triplicate to a 96-well, V-bottom microplate. RPMI-10 was added to the wells designated for spontaneous release and total release of the target cells. One hundred microliters of the target cell suspension (1×10^4 cells/well) were added to the wells for a total volume of 200 μl. The “total release” wells contained 15 μl of 9% Triton X-100, 85 μl of RPMI-10, and 100 μl of target cells.
The 96-well plate was centrifuged at 150×g for four minutes to gently bring the effector and target cells in contact. The plate was then incubated in a humidified 5% CO2 incubator. After four hours, the assay plate was again centrifuged for five minutes at 250×g. One hundred microliters of the supernatant was carefully removed from each well and placed in 12 mm×75 mm glass tubes for counting in a gamma counter. The percent release was calculated using the following formula: […]
Addition of PT stimulates both murine splenocytes and human PBLs to kill tumor cells through lysis. This effect is enhanced in the presence of IL-2. Experimentally, the YAC-1 tumor cell line is routinely used as a target cell for murine NK cells, and the K562 cell line is used as the target for human PBLs. The human prostate cell line DU145 was also included in the test. The data set out in Table 5 show an activation of both murine and human NK cells by PT and IL-2. For these experiments, the drugs, PT and IL-2, were included in the cell suspension and incubated for 48 hours. After this period, the splenocyte suspension was mixed with the YAC-1 target cells that had been loaded with ^51Cr for four hours. The human PBLs were added to a K562 or DU-145 cell suspension that had been similarly loaded. After a 30-minute incubation, the radioactivity in the supernatant fluid was counted as a measure of lysis of the target cells, which reflects NK activity. […]

“Pyrularia thionin (KSCCRNTWARNCYNVCRLPGTISREICAKKCDCKIISGTTCPSDYPK; ends and bridges not checked; also: labeled with 125I) [PT]”: the “% Cytotoxicity” value in the data set with DU-145 Target Cells is 11.5 ± 1.1%; with YAC-1 target cells (Swiss Webster murine splenocytes, YAC-1 targets, 48 hours with drugs, PT 0.01 μg/ml, IL-2 50 units/ml when present, effector to target ratio 80), 3.4 ± 0.9%. Also, the “number of T cells in the spleen and thymus” value in data set [1] (10 μg of PT injected intraperitoneally into Swiss Webster mice) is “increase in the number of T cells in the spleen and thymus”. In addition, the “Splenic cells, Medium Fluor.” value came out at 24 ± 4.2% in data set [1] (Experiment 1, 7 week male mice, 10 μg PT ip, after three days, none: 13); 36 ± 2.1% in data set [1] (Experiment 2, 6 month male mice, 10 μg PT ip, after three days, none: 21); 28 ± 2.2% in data set [1] (Experiment 3, 4 month females, 5 μg PT ip, after three days, none: 24). Moreover, the “Splenic cells, High Fluor.” value in data set [1] (Experiment 1, 7 week male mice, 10 μg PT ip, after three days, none: 18) was 30 ± 5.0%; in data set [1] (Experiment 2, 6 month male mice, 10 μg PT ip, after three days, none: 29), 32 ± 1.4%; in data set [1] (Experiment 3, 4 month females, 5 μg PT ip, after three days, none: 26) it was 31 ± 2.5%. Further, the “Splenic cells, No Fluor.” value in data set [1] (Experiment 1, 7 week male mice, 10 μg PT ip, after three days, none: 69) was determined as 46 ± 0.4%; in data set [1] (Experiment 2, 6 month male mice, 10 μg PT ip, after three days, none: 50) it was 32 ± 1.1%; in data set [1] (Experiment 3, 4 month females, 5 μg PT ip, after three days, none: 50), 41 ± 3.5%. Also, the “Thymus cells, High Fluor.” value in data set [1] (Experiment 3, 4 month females, 5 μg PT ip, after three days, none: 25) is 39 ± 2.9%. For the same substance, the “Thymus cells, Medium Fluor.” value in data set [1] (Experiment 3, 4 month females, 5 μg PT ip, after three days, none: 27) was 29 ± 1.5%. Further, the “Thymus cells, No. Fluor.” value in data set [1] (Experiment 3, 4 month females, 5 μg PT ip, after three days, none: 48) is 32 ± 4.4%. In addition, the results for the “% Cell Lysis” value in the data set with YAC-1 target cells (0.01 μg/ml), in the data set on YAC-1 target cells (0.03 μg/ml) and in the data set on YAC-1 target cells (0.1 μg/ml) were −0.9 ± 0.5%, 2.1 ± 0.2% and 1.8 ± 0.4%, respectively.
